Measurements: patent EP4592286A1, “MACROCYCLIC NITROGEN-CONTAINING CROWN ETHER COMPOUND AND USE THEREOF AS PROTEIN KINASE INHIBITOR” (Artivila Biopharma, priority 2022, dated 2024)

Biological target: LRRK2 (Homo sapiens, UniProt Q5S007)
Assay: experiment of inhibiting LRRK2 kinase activity (ADP-Glo method)
Assay type: biochemical
Conditions: Table 4
Description: The inhibitory effect of the compounds on the activity of LRRK2 kinase was detected by ADP-Glo method. The diluted solutions of the compounds were transfered to a 384-well plate (784075, Greiner), the plate was sealed and centrifuged at a speed of 1000 g for 1 minute. A kinase solution at 2-fold final concentration was prepared with 1×kinase buffer, 2.5 µl of the kinase solution with 2-fold final concentration was added to the wells, the plate was centrifuged at 1000 g for 30 seconds, and left at room temperature for 10 minutes. A mixed solution of ATP and kinase substrate at 2-fold final concentration was prepared with 1×kinase buffer, and 2.5 µL of mixed solution of ATP and substrate at 2-fold final concentration was added to start the reaction. The plate was centrifuged at 1000 g for 30 seconds, sealed and left at room temperature for 2 hours. 4 µL of ADP-Glo reagent was added and incubated at room temperature for 40 minutes; 8 µL kinase detection reagent was added and incubated at room temperature for another 40 minutes. The luminescence signal value was detected on Envision 2104 microplate reader. The conversion inhibition rate%=100-(compound signal value-positive control signal value)/(blank control signal value-positive control signal value)×100.
The IC50 was calculated with GraphPad 6.0 and the dose-responsive curve of the compounds was plotted as follows: y=Bottom+(Top-Bottom)/(1+10^((logic50-x)×hillslope)), where x was logarithm of inhibitor concentration; and y was % inhibition rate.

LRRK2, sequence (Q5S007 whole entry): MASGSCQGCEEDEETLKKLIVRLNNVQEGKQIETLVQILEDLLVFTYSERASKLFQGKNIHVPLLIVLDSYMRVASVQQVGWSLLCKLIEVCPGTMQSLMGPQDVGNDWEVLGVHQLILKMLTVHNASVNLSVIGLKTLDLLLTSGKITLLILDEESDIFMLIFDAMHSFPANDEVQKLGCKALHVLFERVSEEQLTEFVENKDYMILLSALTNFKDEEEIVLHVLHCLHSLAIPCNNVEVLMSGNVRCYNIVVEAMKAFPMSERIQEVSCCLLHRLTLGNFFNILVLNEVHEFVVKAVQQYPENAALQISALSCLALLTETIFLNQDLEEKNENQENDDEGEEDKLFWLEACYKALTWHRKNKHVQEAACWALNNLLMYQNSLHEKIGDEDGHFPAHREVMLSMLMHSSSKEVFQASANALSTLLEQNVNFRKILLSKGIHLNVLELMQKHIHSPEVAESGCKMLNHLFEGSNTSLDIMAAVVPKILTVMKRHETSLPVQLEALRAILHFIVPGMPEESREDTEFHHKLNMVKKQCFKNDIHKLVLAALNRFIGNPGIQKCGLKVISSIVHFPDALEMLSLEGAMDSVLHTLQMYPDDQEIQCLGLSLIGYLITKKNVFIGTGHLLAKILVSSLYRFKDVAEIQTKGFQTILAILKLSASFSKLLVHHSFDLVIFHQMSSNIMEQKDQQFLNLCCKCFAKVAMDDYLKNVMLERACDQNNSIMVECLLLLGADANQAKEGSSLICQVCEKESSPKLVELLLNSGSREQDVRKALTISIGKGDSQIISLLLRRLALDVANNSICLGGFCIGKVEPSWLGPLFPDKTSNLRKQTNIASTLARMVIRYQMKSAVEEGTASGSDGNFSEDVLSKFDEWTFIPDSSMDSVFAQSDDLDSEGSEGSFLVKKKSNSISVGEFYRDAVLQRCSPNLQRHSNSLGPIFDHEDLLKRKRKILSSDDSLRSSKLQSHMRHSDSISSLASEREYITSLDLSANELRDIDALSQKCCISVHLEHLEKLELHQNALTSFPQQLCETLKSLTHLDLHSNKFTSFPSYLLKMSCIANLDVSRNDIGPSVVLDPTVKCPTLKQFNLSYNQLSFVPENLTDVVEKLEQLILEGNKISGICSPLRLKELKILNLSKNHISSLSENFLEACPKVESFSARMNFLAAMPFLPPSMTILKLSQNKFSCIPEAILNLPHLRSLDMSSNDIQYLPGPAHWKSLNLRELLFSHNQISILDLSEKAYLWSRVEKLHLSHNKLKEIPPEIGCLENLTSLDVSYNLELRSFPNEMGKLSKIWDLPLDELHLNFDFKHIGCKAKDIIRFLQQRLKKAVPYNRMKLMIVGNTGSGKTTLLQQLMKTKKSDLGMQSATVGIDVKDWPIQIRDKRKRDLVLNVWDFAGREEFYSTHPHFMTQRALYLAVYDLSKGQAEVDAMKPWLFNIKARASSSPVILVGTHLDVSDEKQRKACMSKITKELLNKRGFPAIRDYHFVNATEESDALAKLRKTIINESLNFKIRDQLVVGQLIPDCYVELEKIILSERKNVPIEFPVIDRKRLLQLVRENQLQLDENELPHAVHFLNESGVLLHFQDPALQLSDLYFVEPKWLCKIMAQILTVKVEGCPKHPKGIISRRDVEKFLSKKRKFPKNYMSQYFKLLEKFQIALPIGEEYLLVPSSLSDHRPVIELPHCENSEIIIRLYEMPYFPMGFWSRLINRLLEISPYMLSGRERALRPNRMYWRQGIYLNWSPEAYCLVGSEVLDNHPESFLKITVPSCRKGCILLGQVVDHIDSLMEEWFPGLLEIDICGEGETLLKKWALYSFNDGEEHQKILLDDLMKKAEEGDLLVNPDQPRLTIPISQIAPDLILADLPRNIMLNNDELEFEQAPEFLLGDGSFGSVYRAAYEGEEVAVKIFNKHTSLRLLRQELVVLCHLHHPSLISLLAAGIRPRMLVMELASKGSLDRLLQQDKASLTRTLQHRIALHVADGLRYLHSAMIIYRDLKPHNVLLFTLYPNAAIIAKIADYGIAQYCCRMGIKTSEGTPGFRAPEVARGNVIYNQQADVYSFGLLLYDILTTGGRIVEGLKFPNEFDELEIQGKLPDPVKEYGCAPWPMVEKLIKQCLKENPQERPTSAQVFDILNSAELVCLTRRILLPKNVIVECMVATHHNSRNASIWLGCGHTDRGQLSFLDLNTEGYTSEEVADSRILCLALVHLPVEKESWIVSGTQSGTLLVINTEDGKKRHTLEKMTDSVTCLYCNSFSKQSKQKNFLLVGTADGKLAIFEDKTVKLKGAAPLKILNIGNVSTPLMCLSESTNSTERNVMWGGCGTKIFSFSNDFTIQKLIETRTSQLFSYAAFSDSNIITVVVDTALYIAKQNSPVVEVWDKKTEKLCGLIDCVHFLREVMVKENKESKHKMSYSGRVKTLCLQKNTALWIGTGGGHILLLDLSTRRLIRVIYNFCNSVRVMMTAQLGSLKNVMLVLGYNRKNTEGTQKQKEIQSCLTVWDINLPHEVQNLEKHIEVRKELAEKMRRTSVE

**Q.** How did the IC50 turn out when COc1ccccc1Nc1nc(Nc2ccc3c(c2)OCCN(C)CCO3)ncc1C(F)(F)F [Example 95, N^4-(2-methoxyphenyl)-N^2-(4-methyl-3,4,5,6-tetrahydro-2H-benzo[b][1,4,7]dioxazolin-9-yl)-5-(trifluoromethyl)pyrimidin-2,4-diamine] was run?
**A.** Its IC50 is less than 100 nM.

**Q.** Which IC50 does the source give for CNc1cc(O[C@H]2CC[C@@](C)(O)CC2)nc(Nc2ccc3c(c2)OCCN(C)CCO3)n1 [Example 108, (1s,4s)-1-methyl-4-((2-((4-methyl-3,4,5,6-tetrahydro-2H-benzo[b][1,4,7]dioxazolin-9-yl)amino)-6-(methylamino)pyrimidin-4-yl)oxy)cyclohexan-1-ol] here?
**A.** Its IC50 is 500 to 1000 nM.

**Q.** COCc1ccccc1Nc1nc(Nc2ccc3c(c2)OCCN(C)CCOCCO3)ncc1C(F)(F)F [Example 116, N^4-(2-(methoxymethyl)phenyl)-N^2-(7-methyl-2,3,6,7,8,9-hexahydro-5H-benzo[b][1,4,7]trioxa[10]azacyclododecan-12-yl)-5-(trifluoromethyl)pyrimidin-2,4-diamine] was tested. Which IC50 did it give?
**A.** Its IC50 is less than 100 nM.

**Q.** For CN1CCOCCOc2ccc(Nc3nc(O[C@H]4CC[C@](C)(O)CC4)c4cc[nH]c4n3)cc2OCC1 [Example 87, (1r,4r)-1-methyl-4-((2-((7-methyl-2,3,6,7,8,9-hexahydro-5H-benzo[b][1,4,7]trioxa [10]azacyclododecan-12-yl)amino)-7H-pyrrolo[2,3-d]pyrimidin-4-yl)oxy)cyclohexan-1-ol], which IC50 is on record?
**A.** The IC50 was less than 100 nM.

**Q.** How did the IC50 turn out when Cc1cnc(Nc2ccc3c(c2)OCCN(C)CCOCCO3)nc1O[C@H]1CC[C@@](C)(O)CC1 [Example 105, (1s,4s)-1-methyl-4-((5-methyl-2-((7-methyl-2,3,6,7,8,9-hexahydro-5H-benzo[b][1,4, 7]trioxa[10]azacyclododecan-12-yl)amino)pyrimidin-4-yl)oxy)cyclohexan-1-ol] was run?
**A.** Its IC50 is less than 100 nM.

Biological target: T1, endogenous phosphorylated LRRK2 (S935) (Homo sapiens, UniProt Q5S007)
T1 construct: Detection of endogenous phosphorylated LRRK2 (S935) in A549 cells; endogenous in cells; host or cells: A549
Assay: detection of endogenous phosphorylated LRRK2 (S935) in A549 cells (Western blot)
Assay type: cell-based
Conditions: at 1 µM, LRRK2 (S935) activity in A549 cells, 15 hours; read-out: Inhibition rate
Description: Detection of endogenous phosphorylated LRRK2 (S935) in A549 cells
A549 cells were resuspended in serum-free 1640 medium at a density of 1×10^6 cells/ml, and inoculated into a 6-well plate at 1 ml/well, and cultured at 37°C and 5% CO2 for 6-8 hours. 1 microliter of compound solution in DMSO or DMSO (volume ratio of 0.1%) was added, mixed evenly, and cultivated at 37°C and 5% CO2 for 15 hours. Cells were collected, 50 microliters of RIPA III lysis solution were added to each sample to lyse cells on ice for 15 minutes, centrifuged at 4°C and 13000 rpm for 30 minutes, the supernatant was collected, the protein concentration of cell lysis solution was measured by BCA, and the protein concentrations of all samples were normalized. 5×sample loading buffer were added and kept at 95°C for 10 minutes. The content of phosphorylated S935 of endogenous LRRK2 was detected by Western blot, using antibody against phosphorylated LRRK2 (S935) (Abcam#133450). The signal intensity of phosphorylated LRRK2 (S935) was counted by Image J, the signal of phosphorylated LRRK2 (S935) in a sample was normalized by β-actin, and the data was analyzed.

T1 sequence (Q5S007 whole entry): as above

**Q.** How did the inhibition at 1 µM turn out when Cc1cnc(Nc2ccc3c(c2)OCCN(C)CCO3)nc1O[C@H]1CC[C@@](C)(O)CC1 [Example 101, (1s,4s)-1-methyl-4-((5-methyl-2-((4-methyl-3,4,5,6-tetrahydro-2H-benzo[b][1,4,7]dioxazolin-9-yl)amino)pyrimidin-4-yl)oxy)cyclohexan-1-ol] was run?
**A.** Its inhibition at 1 µM is 40 to 79%.

**Q.** COCc1ccccc1Nc1nc(Nc2ccc3c(c2)OCCN(C)CCO3)ncc1C(F)(F)F [Example 94, N^4-(2-(methoxymethyl)phenyl)-N^2-(4-methyl-3,4,5,6-tetrahydro-2H-benzo[b][1,4,7]dioxazolin-9-yl)-5-(trifluoromethyl)pyrimidin-2,4-diamine] was tested. Which inhibition at 1 µM did it give?
**A.** The inhibition at 1 µM was greater than 0%.

**Q.** Which inhibition at 1 µM does the source give for CN1CCOc2ccc(Nc3ncc(C(F)(F)F)c(NCC4(C#N)CC4)n3)cc2OCC1 [Example 96, 1-(((2-((4-methyl-3,4,5,6-tetrahydro-2H-benzo[b][1,4,7]dioxazolin-9-yl)amino)-5-(trifluoromethyl)pyrimidin-4-yl)amino)methyl)cyclopropan-1-carbonitrile] here?
**A.** The inhibition at 1 µM was greater than 0%.

Same assay, conditions: at 2 µM, LRRK2 (S935) activity in A549 cells, 15 hours; read-out: Inhibition rate

**Q.** With CN1CCOCCOc2ccc(Nc3ncc(C(F)(F)F)c(NC[C@@H]4CCO4)n3)cc2OCC1 [Example 88, (S)-N^2-(7-methyl-2,3,6,7,8,9-hexahydro-5H-benzo[b][1,4,7]trioxa[10]azacyclododecan-12-yl)-N^4-(oxetan-2-ylmethyl)-5-(trifluoromethyl)pyrimidin-2,4-diamine] as the compound, how does the inhibition at 2 µM read?
**A.** Its inhibition at 2 µM is greater than 80%.

**Q.** How did the inhibition at 2 µM turn out when CN1CCOc2ccc(Nc3ncc(C(F)(F)F)c(NCC(C)(C)O)n3)cc2OCC1 [Example 8, 2-methyl-1-((2-((4-methyl-3,4,5,6-tetrahydro-2H-benzo[b][1,4,7]dioxazolin-9-yl)amino)-5-(trifluoromethyl)pyrimidin-4-yl)amino)propan-2-ol] was run?
**A.** The inhibition at 2 µM was greater than 80%.

**Q.** How did the inhibition at 2 µM turn out when CN1CCOCCOc2ccc(Nc3nc(NCC(C)(C)O)c4cc[nH]c4n3)cc2OCC1 [Example 90, 2-methyl-1-((2-((7-methyl-2,3,6,7,8,9-hexahydro-5H-benzo[b][1,4,7]trioxa[10]azacyclododecan-12-yl)amino)-7H-pyrrolo[2,3-d]pyrimidin-4-yl)amino)propan-2-ol] was run?
**A.** Its inhibition at 2 µM is greater than 80%.
